Laboratory results as given in US8293479B2, “Use of parathyroid hormone-related protein(PTHRP) in the diagnosis and treatment of chronic lung disease and other pathologies” (Los Angeles Biomedical Research Institute at Harbor UCLA …, priority 2002, dated 2012).

What was measured:
[1] = tested on: E19 fetal rat lung fibroblasts; test: PTHrP treatment of fetal rat lung fibroblasts, ADRP mRNA by competitive RT-PCR; type: cell-based; conditions: 0.5 µM PTHrP (printed 0.5:M), 15 hours, normalized to GAPDH
[2] = tested on: E21 fetal rat lung lipofibroblasts; test: PTHrP treatment of serially passaged (P4) transdifferentiating lipofibroblasts, marker expression by competitive RT-PCR; type: cell-based; conditions: PTHrP 0.5 µM, compared with P1
d18 FRLFs = test: Antioxidant pretreatment of FRLFs exposed to hyperoxia, ADRP mRNA expression; type: cell-based, rat; conditions: 95% O2 for 24 h, one hour antioxidant pretreatment
Experimental: RT-PCR was carried out for 2 hours at 37° C. in 50 mM Tris buffer, pH 8.3 containing 75 mM KCl, 3 mM MgCl2 and 10 mM DTT. The total volume of incubation was 20 μl and it contained 0.5 mM each of dNTP, 20 U of RNasin, 25 pmol of oligo(dt) primer and 200 U of Moroney murine leukemia virus reverse transcriptase. […] The cDNA is adjusted to equal concentrations as assessed by the PCR of the constitutively expressed gene, GAPDH (rat lung GAPDH). […]

Myofibroblasts (P10s) = test: PGJ2 treatment of P10 myofibroblasts, lipofibroblast marker expression; type: cell-based, rat; conditions: PGJ2 30 µM, up to 144 hours (FIG. 13)
[3] = tested on: fetal rat lung fibroblasts (FRLF); test: PGJ2 treatment of fetal rat lung fibroblasts, spontaneous and hyperoxia-induced lipo-to-myofibroblast transdifferentiation; type: cell-based; conditions: PGJ2 30 µM
Experimental: e18 (pre-term) and e21 (near term) fetal rat lung fibroblasts were maintained in DMEM+10% fetal bovine serum in 21% (control) or 95% (experimental) O2+5% CO2 in sealed modular incubator chambers (Billups-Rothenberg, Del Mar, Calif.) kept at 37° C. in standard incubators. Modular incubators were flushed for 3 min at a flow rate of 10 liters/min with either 21 or 95% O2+5% CO2 with remainder of the gas mixture as N2. Modular incubators were then sealed and then put in standard cell culture incubators. When confluent, cells were passaged and allowed to grow in 21% O2 for 24 h. Subsequently, control cells were maintained in 21% O2+5% CO2 and experimental cells in 95% O2+5% CO2 in modular incubators as described above This was continued up to passage 5. Passage 1 and 5 cells were studied for the expression of various lipogenic and myogenic markers by reverse transcriptase-polymerase chain reaction (RT-PCR).
RT PCR probes used included-Rat Parathyroid Hormone related Protein Receptor (PTHrPR): 5′ CTCTTCTTGACTGTTGTCGCTGGT (SEQ ID NO:14) and 3′[…] […] Rat alpha Smooth Muscle Actin (SMA). RT-PCR was carried out for 2 hours at 37° C. in 50 mM Tris buffer, pH 8.3 containing 75 mM KCl, 3 mM MgCl2 and 10 mM DTT. […] The cDNA is adjusted to equal concentrations as assessed by the PCR of the constitutively expressed gene, GAPDH (rat lung GAPDH). […]

[4] = tested on: fetal rat lung type II cells; test: Co-culture of fetal rat type II cells with PGJ2-pretreated myofibroblasts, cell count and RT-PCR for Surfactant Protein B; type: cell-based
Experimental: FIGS. 14A and 14B show the effect of lipofibroblasts and myofibroblasts on fetal rat type II cell growth and differentiation. Fetal type II cells were co-cultured with lipofibroblasts, myofibroblasts or myofibroblasts pretreated with PGJ2. Cell growth was determined by cell count and differentiation was determined by RT-PCR for Surfactant Protein B. Note that in the presence of lipofibroblasts or myofibroblasts treated with PGJ2 that type II cells grow (see Figure on left) and differentiate (Figure on right) with time in culture. […] Day 1 v subsequent day in culture, *, p<0.05; **; p<0.01; ***,p<0.0001 by Analysis of Variance.
In order to link the process of fibroblast transdifferentiation to alveolarization, we recombined day 19 fetal rat lung type II cells with either P1 lipofibroblasts, P10 myofibroblasts, or P10 myofibroblasts pretreated with PGJ2; PGJ2 induces the transdifferentiation of myofibroblasts to lipofibroblasts (Hu et al. (1995) Proc. Natl. Acad. Sci. USA 92:9856-9860).

Q: How did the ADRP expression [1] turn out when “PTHrP: Parathyroid Hormone-related Protein; PTHrP (1-34) and PTHrP (7-34) amide were obtained from Bachem” was run?
A: inducing ADRP expression

Q: And the “alpha SMA expression” value ([2]; P4 lipofibroblasts, 24 hour treatment)?
A: decreased alpha SMA expression down to levels comparable to those observed for P1s

Q: And the “PTHrP receptor expression (printed in b310 as PTHrP expression)” value ([2]; lipofibroblasts treated at Passage 4 for 24 hours)?
A: increase in PTHrP expression up to a level comparable to that of P1s

Q: How did the “prevention of hyperoxia-induced decrease in ADRP mRNA expression” value (d18 FRLFs) turn out when superoxide dismutase was run?
A: ineffective

Q: Which “expression of ADRP by P10 myofibroblasts” value (Myofibroblasts (P10s)) does the source give for CCCCC[C@H](O)/C=C/[C@H]1C(=O)C=C[C@@H]1C/C=C\CCCC(=O)O [PGJ2, prostaglandin J2] here?
A: increased the expression of ADRP

Q: What about the “hyperoxia induced lipo-to-myofibroblast transdifferentiation” value ([3]; 24 h treatment) of the same compound?
A: partially blunts

Q: What about the “spontaneous decrease in ADRP mRNA expression” value ([3]; up to 72 h in culture) of the same compound?
A: attenuated

Q: And the “Surfactant Protein-B expression by type II cells” value ([4]; type II cells co-cultured with PGJ2-treated P10 myofibroblasts)?
A: comparable to that by lipofibroblasts

Q: And the “type II cell proliferation (cell number)” value ([4]; type II cells co-cultured with PGJ2 pre-treated P10 myofibroblasts, 5 day culture)?
A: comparable to that of primary lipofibroblasts
